{
  "source": "patent US11020378B2",
  "about": "“Compounds, compositions and methods for treating insulin resistance” (UNIVERSITE PARIS DESCARTES, priority 2017, dated 2021)",
  "key": {"[1]": {"test_system": "PEPCK and G6Pase expression", "test": "Expression of neoglucogenesis genes in hepatocytes in primary culture (RT-qPCR)", "assay_type": "cell-based, mice", "conditions": "50 μM; glucagon 10 nM; absence of insulin; 8 h", "protocol": "FIG. 6, the effect of the compound of Formula (Ia) according to the invention (black bars) on the expression of insulin target genes, PEPCK (FIG. 6A) and G6Pase (FIG. 6B), involved in the neoglucogenesis pathway. Hepatocytes in primary culture are cultured for 8 h in the presence of compounds of Formula (Ia) (50 μM), insulin (1 nM) and glucagon (pre-incubation 1 h at 10 nM). The relative quantification of mRNAs is performed by RT-qPCR. The values are related to the quantification of the 18S gene in the same sample in order to normalize the results. The results are the average of 3 to 5 independent experiments (*p<0.05, **p<0.01, by Anova followed by a Newman-Keuls test).\nTo study the inhibitory effect of insulin on neoglucogenesis gene expression, hepatocytes from mice in primary culture were pre-incubated with 10 nM glucagon."}, "PI3K/Akt pathway [2]": {"test_system": "PI3K/Akt pathway", "test": "Luc-Akt-PH/YFP-membrane BRET in MCF7 line", "assay_type": "cell-based", "conditions": "50 μM, MCF7 cells", "protocol": "FIG. 5A and FIG. 5B, the effect of the compound of Formula (Ia) according to the invention (black bars) on the activation of the PI3K/Akt pathway measured by the Luc-Akt-PH/YFP-membrane BRET technique compared to the DMSO (Dimethylsulfoxide) control (white bars) as measured on (FIG. 5A) HEK293T cells pre-incubated or not for 1 h with tyrosine kinase inhibitor AG1024 at a concentration of 25 μM final or on (FIG. 5B) an MCF7 line doubly and stably transfected with the vectors encoding Luc-Akt-PH and YFP-membrane. The results, expressed as BRET delta, are the average of 3 to 8 independent experiments (**p<0.01, ***p<0.001, by Newman-Keuls multiple comparison test).\nTo measure the activity of the PI3-kinase pathway by the BRET technique, HEK293T cells are transfected with plasmids allowing, on the one hand, the expression of the PH (Pleckstrin Homology) domain of the Akt protein which has been fused to the luciferase and, on the other hand, a membrane-addressing sequence which has been fused to the YFP protein. When the PH domain of Akt is recruited to the membrane by the PIP3s, an energy transfer between the luciferase that is coupled to the PH domain of Akt and the membrane YFP protein takes place. The measured BRET signal is a control of the production of PIP3s at the membrane and is a reflection of the activation of the PI-3-kinase/Akt pathway in real time on cells. […]"}, "PI3K/Akt pathway [3]": {"test_system": "PI3K/Akt pathway", "test": "Luc-Akt-PH/YFP-membrane BRET in HEK293T cells (recruitment of Akt to the membrane)", "assay_type": "cell-based", "conditions": "for BRET delta (recruitment of the Akt protein to the membrane): 50 μM", "source_text": "To measure the activity of the PI3-kinase pathway by the BRET technique, HEK293T cells are transfected with plasmids allowing, on the one hand, the expression of the PH (Pleckstrin Homology) domain of the Akt protein which has been fused to the luciferase and, on the other hand, a membrane-addressing sequence which has been fused to the YFP protein. When the PH domain of Akt is recruited to the membrane by the PIP3s, an energy transfer between the luciferase that is coupled to the PH domain of Akt and the membrane YFP protein takes place. The measured BRET signal is a control of the production of PIP3s at the membrane and is a reflection of the activation of the PI-3-kinase/Akt pathway in real time on cells."}, "IR-Grb14 interaction": {"target": "T1, IR-Grb14 interaction (Homo sapiens, UniProt P06213)", "T1 construct": "a vector encoding the insulin receptor fused to the luciferase (IR-Luc); made in house; host or cells: HEK293T (transfected); IR-Luc was partially purified on wheat germ lectin sepharose; Grb14-YFP was used as crude lysate", "T1 sequence (P06213 763-1382 limits assumed)": "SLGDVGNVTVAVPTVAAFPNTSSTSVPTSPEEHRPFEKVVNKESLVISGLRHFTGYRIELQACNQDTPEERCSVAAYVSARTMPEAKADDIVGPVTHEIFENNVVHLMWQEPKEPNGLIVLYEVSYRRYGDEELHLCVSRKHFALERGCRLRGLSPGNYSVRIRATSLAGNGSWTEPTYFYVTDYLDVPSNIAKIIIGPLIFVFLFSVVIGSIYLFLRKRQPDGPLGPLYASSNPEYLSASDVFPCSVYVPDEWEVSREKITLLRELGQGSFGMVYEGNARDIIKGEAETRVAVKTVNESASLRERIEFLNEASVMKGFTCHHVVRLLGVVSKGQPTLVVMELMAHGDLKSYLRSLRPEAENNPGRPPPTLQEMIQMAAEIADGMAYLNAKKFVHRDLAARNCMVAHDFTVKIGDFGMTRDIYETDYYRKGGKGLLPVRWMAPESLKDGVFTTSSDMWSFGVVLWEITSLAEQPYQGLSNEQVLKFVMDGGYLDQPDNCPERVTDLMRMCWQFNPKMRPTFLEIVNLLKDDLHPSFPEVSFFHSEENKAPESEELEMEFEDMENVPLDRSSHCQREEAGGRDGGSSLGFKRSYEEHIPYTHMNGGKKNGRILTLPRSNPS", "T1 sequence (P06213 28-758 partner limits assumed)": "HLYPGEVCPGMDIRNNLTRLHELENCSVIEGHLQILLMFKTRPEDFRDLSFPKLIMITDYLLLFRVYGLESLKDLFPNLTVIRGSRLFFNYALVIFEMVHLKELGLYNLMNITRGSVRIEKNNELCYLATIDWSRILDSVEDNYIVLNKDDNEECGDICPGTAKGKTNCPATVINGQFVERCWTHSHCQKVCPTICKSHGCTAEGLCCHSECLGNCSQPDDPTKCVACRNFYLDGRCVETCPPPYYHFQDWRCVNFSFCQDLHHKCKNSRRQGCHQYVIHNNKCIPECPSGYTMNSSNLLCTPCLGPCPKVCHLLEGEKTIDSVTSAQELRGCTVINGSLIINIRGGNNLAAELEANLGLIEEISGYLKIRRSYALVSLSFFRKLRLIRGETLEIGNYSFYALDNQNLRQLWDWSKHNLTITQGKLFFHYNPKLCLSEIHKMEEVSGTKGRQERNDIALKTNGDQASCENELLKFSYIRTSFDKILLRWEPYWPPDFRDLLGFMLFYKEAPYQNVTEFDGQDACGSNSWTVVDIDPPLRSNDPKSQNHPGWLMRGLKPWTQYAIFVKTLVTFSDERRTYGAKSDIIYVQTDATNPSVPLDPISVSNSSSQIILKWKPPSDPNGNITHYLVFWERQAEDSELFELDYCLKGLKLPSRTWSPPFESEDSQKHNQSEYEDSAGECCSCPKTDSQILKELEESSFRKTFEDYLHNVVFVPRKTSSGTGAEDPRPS", "test": "IR-Luc/Grb14-YFP BRET technique in a cell-free system", "assay_type": "binding", "protocol": "Compounds according to the invention were experimentally assessed for their inhibitory effect on the IR-Grb14 interaction by a BRET technique in a cell-free system described briefly below.\nOn the one hand, HEK293T cells were transfected with a vector encoding the insulin receptor fused to the luciferase (IR-Luc). Before lysis, the cells transfected with IR-Luc were stimulated or not with 100 nM insulin for 10 minutes. The IR-Luc lysates were recovered and then purified on sepharose beads coupled with wheat germ lectin (WGL for Wheat Germ Lectin). The IR-Luc receptors were then eluted and then frozen in liquid nitrogen before being stored at −80° C. On the other hand, HEK293T cells were transfected either with a vector encoding the Grb14 protein fused to the YFP (Grb14-YFP), or with the empty plasmid pcDNA3. The cells transfected with Grb14-YFP or with the empty plasmid pcDNA3 were lysed 48 h after transfection. After centrifugation, the lysates are recovered and frozen at −80° C.\nThe insulin receptors (IR-Luc) partially purified from cells stimulated or not with insulin were incubated for 20 minutes with the inhibitor compounds according to the invention suspended in DMSO. The cellular extracts from cells transfected with Grb14-YFP (or the empty plasmid pcDNA3) were then added and then after 40 minutes of incubation, coelenterazine was added and BRET reading was initiated. The results are expressed as a percentage of the BRET signal obtained in the presence of the molecules tested compared to the BRET signal of the DMSO control."}, "IRTK-Grb10 interaction": {"target": "T2, IRTK-Grb10 interaction (Homo sapiens, UniProt P06213)", "T2 construct": "a construct bearing only the tyrosine kinase domain of the luciferase-fused receptor and the Grb10 protein fused to YFP; expressed in transfected cells; host or cells: HEK 293T", "T2 sequence (P06213 1023-1298 limits assumed)": "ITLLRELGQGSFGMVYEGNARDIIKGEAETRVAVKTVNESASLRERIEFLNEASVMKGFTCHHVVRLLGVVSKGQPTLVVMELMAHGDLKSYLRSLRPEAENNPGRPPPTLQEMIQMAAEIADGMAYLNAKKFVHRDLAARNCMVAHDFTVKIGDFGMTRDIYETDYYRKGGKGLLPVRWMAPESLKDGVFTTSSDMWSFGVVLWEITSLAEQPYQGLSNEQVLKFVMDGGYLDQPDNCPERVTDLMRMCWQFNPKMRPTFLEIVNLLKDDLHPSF", "test": "Co-immunoprecipitation of IRTK48-RLuc with Grb10-YFP in co-transfected HEK 293T cells", "assay_type": "cell-based", "conditions": "same experiment as with Grb14", "protocol": "In order to test the specificity of the compound of Formula (Ia) on this IRTK-Grb14 interaction, the same experiment was conducted with HEK 293T cells co-transfected with a construct bearing only the tyrosine kinase domain of the luciferase-fused receptor and the Grb10 protein fused to YFP. Indeed, the Grb10 protein also binds to the phosphorylated insulin receptor and inhibits its catalytic activity."}, "[4]": {"conditions": "absence of insulin, results not shown"}},
  "data": [
    {"compound": "Cc1ccc(/C=C/C(=O)Nc2ccc(S(=O)(=O)Nc3onc(C)c3C)cc2)o1", "note": "[Ia]", "values": [
      {"measurement": "decrease in glucagon-induced G6Pase expression", "setting": "[1]", "value": "about 20%"},
      {"measurement": "decrease in glucagon-induced PEPCK expression", "setting": "[1]", "value": "about 20%"},
      {"measurement": "effect on the production of PIP3s at the membrane", "setting": "PI3K/Akt pathway [2]; absence of insulin", "value": "no effect"},
      {"measurement": "effect on the production of PIP3s at the membrane", "setting": "PI3K/Akt pathway [2]; presence of 100 nM insulin", "value": "no effect"},
      {"measurement": "BRET delta (recruitment of the Akt protein to the membrane)", "setting": "PI3K/Akt pathway [3]; absence of insulin", "value": "about 86"},
      {"measurement": "BRET delta (recruitment of the Akt protein to the membrane)", "setting": "PI3K/Akt pathway [3]; presence of 5 nM insulin", "value": "about 121"},
      {"measurement": "concentration at which the increase in the BRET signal / PI3K/Akt activation is significant", "setting": "PI3K/Akt pathway [3]; [4]", "value": 10, "unit": "µM"},
      {"measurement": "concentration from which the effect on the BRET signal is detectable", "setting": "PI3K/Akt pathway [3]; [4]", "value": 5, "unit": "µM"},
      {"measurement": "effect on the recruitment of the Akt protein to the membrane after AG1024", "setting": "PI3K/Akt pathway [3]; cells pre-incubated 1 h with 25 μM AG1024, Ia 50 μM, insulin 5 nM", "value": "no longer have any effect"},
      {"measurement": "BRET delta", "setting": "PI3K/Akt pathway [3]; without insulin", "value": "86 (+/−41)"},
      {"measurement": "remaining activity at 50 µM", "setting": "IR-Grb14 interaction; 50 μM, insulin stimulation (100 nM), read-out: % BRET signal/DMSO control", "value": 39, "unit": "%"},
      {"measurement": "decrease in the BRET signal between the insulin receptor and the Grb14 protein", "setting": "IR-Grb14 interaction; 50 μM, with insulin stimulation", "value": 60, "unit": "%"},
      {"measurement": "decrease in the BRET signal", "setting": "IR-Grb14 interaction; in the absence of stimulation with insulin", "value": 50, "unit": "%"},
      {"measurement": "amounts of tyrosine kinase domain of the insulin receptor co-immunoprecipitated with the Grb10 protein", "setting": "IRTK-Grb10 interaction", "value": "does not change"}
    ]}
  ]
}
